Test results taken from patent US20200268768A1, “CENICRIVIROC COMBINATION THERAPY FOR THE TREATMENT OF FIBROSIS” (Tobira Therapeutics, Inc., priority 2015, published 2020).
“Also recorded” adds a separate entry of the source.

Assays:
[1] = Chronic (3- and 9-month) monkey toxicity studies; assay type: in vivo
[2] = system: STAM mouse model of Non-alcoholic Steatohepatitis; test: STAM mouse model of NASH, anti-HCC effects at week 18; conditions: for Mice that died (survival analysis): 6 to 18 weeks; for Body weight / CD31-positive area / Liver weight / Liver-to-body weight ratio / Maximum diameter of visible tumor nodules / Number of visible tumor nodules: mean ± SD
Experimental: Group 1-Vehicle: Eighteen NASH mice were orally administered vehicle at a volume of 10 mL/kg twice daily (9:00 and 19:00) from 6 weeks of age.

CCR5 = CCR5 (Homo sapiens, UniProt P51681); test: CCR5 antagonism in in vitro, ex vivo and clinical studies; conditions: Studies 652-2-201 and 652-2-202
Description: Clinical evidence of CCR2 and CCR5 antagonism was established by measuring changes from baseline in plasma MCP-1 (a ligand of CCR2) concentrations and changes in plasma HIV-RNA (CCR5 co-receptor required for HIV entry), respectively, in these 2 Phase 2 Studies.

HIV-1 infected subjects = test: Study 202 safety and tolerability; assay type: in vivo, human; conditions: 115 subjects, CVC 100 mg and 200 mg for up to 48 weeks
[3] = system: thioacetamide (TAA)-induced hepatic fibrosis; test: Rat model of thioacetamide-induced liver fibrosis and cirrhosis; assay type: in vivo, Sprague-Dawley rats; conditions: for Reduction of ca-SMA / Reduction of collagen type 1 protein levels / Reduction of fibrosis by collagen morphometry: first 8 weeks
Experimental: Fibrosis was induced in male Sprague-Dawley rats by intraperitoneal administration of TAA 150 mg/kg 3 times/week for 8 weeks. […] Biochemical, gene expression and histologic evaluations of the liver were conducted.

[4] = Tissue distribution in rodents; assay type: in vivo
Description: Infiltration of various immune cell populations, resulting in inflammation, is a central pathogenic feature following acute- and chronic liver injury. Chronic liver inflammation leads to continuous hepatocyte injury which can lead to fibrosis, cirrhosis, ESLD, and HCC. Interactions between intra-hepatic immune cells lead to increased activation and migration of Kupffer cells and HSCs and are critical events for developing liver fibrosis. Additionally, there is increasing evidence of the role of CCR2 and CCR5 in the pathogenesis of liver fibrosis. These members of the C-C chemokine family are expressed by pro-fibrogenic cells including pro-inflammatory monocytes and macrophages, Kupffer cells, and HSCs. CCR2 signaling plays an important role in the pathogenesis of renal fibrosis through regulation of bone marrow-derived fibroblasts. CCR2- and CCR5-positive monocytes as well as CCR5-positive T lymphocytes are attracted by locally released MCP-1 and RANTES, and can contribute to chronic interstitial inflammation in the kidney. […] Disruption of the intestinal microbiota and its downstream effects on the gut-liver axis both play an important role in metabolic disorders such as obesity, non-alcoholic fatty liver disease (NAFLD) and non-alcoholic steatohepatitis (NASH).

Mouse toxicity studies = assay type: in vivo; conditions: CVC doses up to 2000 mg/kg/day; no surgical procedures
[5] = CVC-high 100 mg/kg/day oral, week 18
[6] = CVC-high 100 mg/kg/day oral, week 18, listed as Cenicriviroc
[7] = CVC-low 20 mg/kg/day oral, week 18
[8] = CVC-low 20 mg/kg/day oral, week 18, listed as Cenicriviroc
[9] = Group 1a: CVC 30 mg/kg/day concurrently with TAA
[10] = Group 1b: CVC 100 mg/kg/day concurrently with TAA

Chain of CCR5 (P51681 whole entry): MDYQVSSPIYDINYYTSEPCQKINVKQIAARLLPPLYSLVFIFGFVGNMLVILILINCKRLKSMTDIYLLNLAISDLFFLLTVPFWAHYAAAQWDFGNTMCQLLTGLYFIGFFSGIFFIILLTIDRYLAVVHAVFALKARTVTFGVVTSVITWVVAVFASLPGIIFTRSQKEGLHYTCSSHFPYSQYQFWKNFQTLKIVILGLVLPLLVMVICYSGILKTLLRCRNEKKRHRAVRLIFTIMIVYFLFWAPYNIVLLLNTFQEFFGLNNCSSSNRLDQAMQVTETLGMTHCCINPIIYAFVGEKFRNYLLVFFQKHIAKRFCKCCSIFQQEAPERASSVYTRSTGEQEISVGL

**Q.** What does the source list for `CCCCOCCOc1ccc(-c2ccc3c(c2)C=C(C(=O)Nc2ccc([S@@+]([O-])Cc4cncn4CCC)cc2)CCCN3CC(C)C)cc1` [CVC, (S)-8-[4-(2-Butoxyethoxy)phenyl]-1-isobutyl-N-(4-{[(1-propyl-1H-imidazol-5-yl)methyl]sulfinyl}phenyl)-1,2,3,4-tetrahydro-1-benzazocine-5-carboxamide]?
**A.** Plasma MCP-1 levels over controls ([1]; 1000 mg/kg/day, chronic (3- and 9-month) monkey toxicity studies): ~5 fold; Inflammation in clinical pathology parameters or any tissue, including the liver, by microscopic evaluation ([1]; high dose of 1000 mg/kg/day): No indication of inflammation; Effect on NASH-derived HCC ([2]; CVC treatment groups, week 18): not observed; Mice that died (survival analysis) ([2]; CVC-high 100 mg/kg/day oral): Five out of twelve; Mice with GS-positive nodules [2, 5]: seven out of seven; Mice with HCC lesions (HE staining) [2, 5]: six out of seven; Body weight [2, 5]: 20.8 ± 2.7 g; CD31-positive area [2, 5]: 3.68±1.37%; Liver weight [2, 5]: 1817 ± 446 mg; Liver-to-body weight ratio [2, 5]: 8.8±2.3%; Maximum diameter of visible tumor nodules [2, 5]: 5.3±5.1 mm; Number of visible tumor nodules [2, 5]: 3.6±2.5; Body weight [2, 6]: 20.8 ± 2.7 g; CD31-positive area [2, 6]: 3.68 ± 1.37%; Liver weight [2, 6]: 1817 ± 446 mg; Liver-to-body weight ratio [2, 6]: 8.8 ± 2.3%; Maximum diameter of visible tumor nodules [2, 6]: 5.3 ± 5.1 mm; Number of visible tumor nodules [2, 6]: 3.6 ± 2.5; Mice that died (survival analysis) ([2]; CVC-low 20 mg/kg/day oral): Six out of twelve; Mice with GS-positive nodules [2, 7]: five out of six; Mice with HCC lesions (HE staining) [2, 7]: five out of six; Body weight [2, 7]: 22.9 ± 3.5 g; CD31-positive area [2, 7]: 1.47±1.10%; Liver weight [2, 7]: 1837 ± 410 mg; Liver-to-body weight ratio [2, 7]: 8.3±2.8%; Maximum diameter of visible tumor nodules [2, 7]: 4.8±5.4 mm; Number of visible tumor nodules [2, 7]: 1.5±1.9; Body weight [2, 8]: 22.9 ± 3.5 g; CD31-positive area [2, 8]: 1.47 ± 1.10%; Liver weight [2, 8]: 1837 ± 410 mg; Liver-to-body weight ratio [2, 8]: 8.3 ± 2.8%; Maximum diameter of visible tumor nodules [2, 8]: 4.8 ± 5.4 mm; Number of visible tumor nodules [2, 8]: 1.5 ± 1.9; Antagonism of CCR5 (CCR5): potent and concentration-dependent antagonism; Tolerability (HIV-1 infected subjects): generally well tolerated; also recorded: effective and well tolerated; Reduction of ca-SMA [3, 9]: 17%; Reduction of collagen type 1 protein levels [3, 9]: 30%; Reduction of fibrosis by collagen morphometry [3, 9]: 49%; Reduction of ca-SMA [3, 10]: 22%; Reduction of collagen type 1 protein levels [3, 10]: 12%; Reduction of fibrosis by collagen morphometry [3, 10]: 38%; Reduction in collagen ([3]; Group 2a: CVC 30 mg/kg/day during Weeks 4-8 (emerging fibrosis)): 36%; Effect on fibrogenic gene expression or fibrosis ([3]; Group 3: treatment Weeks 8-12, cirrhosis present): no significant effect of CVC on fibrogenic gene expression or fibrosis; Tissue distribution [4]: high distribution in the liver, mesenteric lymph node, and intestine; Tolerability (Mouse toxicity studies): well tolerated
